16 compounds from PubChem BioAssay (NCI) can be followed below.

What all share (assay): growth of human tumour cells (NCI), 48 h
Assay [1] relates to NCI-H460 lung.
Assay [2] relates to HS 578T breast.
The subject of assay [3] is MDA-MB-435.
For assay [4], the system named is CAKI-1 renal.
Assay [5] deals with SW-620 colon.
The subject of assay [6] is UACC-62 melanoma.
Assay [7] concerns A549 NSCLC.
In assay [8] the test system is BT-549 breast.
Assay [9] deals with K-562 leukemia.
In assay [10] the test system is CCRF-CEM leukemia.

Where “and” joins values, the source holds several entries; their conditions need not be identical. Equal entries are not always repeated.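 Method: 48-hour compound exposure of cells in 96-well plates, five concentrations, linear interpolation of endpoints. At the GI50, growth is halved. TGI: concentration producing complete growth inhibition.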

As to `COc1ccc(-c2nn(C(=O)c3cc(OC)c(OC)c(OC)c3)c3cc(N)ccc23)cc1`, the GI50 in assay [1] is less than 0.0112 µM; in [2], less than 0.0179 µM; in assay [3], less than 0.01 µM; in [4], 0.0145 µM; in [5] it was less than 0.01 µM; in assay [6], less than 0.01 µM. The GI50 in [7] is less than 0.0146 µM; in [8], less than 0.0175 µM; in assay [9], less than 0.01 µM; in assay [10] it was 0.0249 µM. For the same compound, the TGI in assay [1] came out at 1.74 µM; in assay [2] it was 39 µM; in assay [4] it was 8.39 µM; in assay [5], 23.4 µM; in [6], 15.3 µM; in assay [7] it was 3.96 µM. Further, the TGI in assay [8] came to 9.56 µM; in assay [9], 10.5 µM; in assay [10] it was 14.3 µM.
`O=P1(NCCCl)OCCC(OO)N1CCCl` (configuration not stated): the TGI is greater than 100 µM in assay [1]; greater than 100 µM in [2]; greater than 100 µM in assay [3]; 35.9 µM in assay [4]; 30.5 µM in [5]; 63.7 µM in [6]. Further, the TGI in assay [7] was greater than 100 µM; in [8], greater than 100 µM; in assay [9] it was greater than 64 µM; in assay [10], greater than 52.7 µM.
`N=C(N)c1ccc(-c2ccc(-c3ccccc3)o2)o1`: the GI50 in assay [1] was 2.45 µM; in [2], 3.81 µM; in assay [3], 0.999 µM; in assay [4], 3.4 µM; in assay [5] it was 1.79 µM; in [6], 1.93 µM. The GI50 was 3.55 µM in assay [7], 4.12 µM in [8], 0.657 µM in [9] and 3.58 µM in [10]. The TGI in [1] amounted to 5.82 µM; in [2], 21.2 µM; in assay [3] it was 2.39 µM; in [4], 14.2 µM; in assay [5] it was 4.2 µM; in assay [6], 3.82 µM. The TGI in assay [7] came out at 11.7 µM; in assay [8] it was 16 µM; in [9] it was 3.18 µM; in assay [10], 12.4 µM.
For the compound `O=C1/C=C/[C@@H](O)[C@@H]2C[C@@H](O)C[C@H]2/C=C/CCCCO1`, the GI50 in assay [1] is 1.77 µM; in assay [2] it was 0.282 µM; in assay [3], 0.338 µM; in assay [4] it was 0.785 µM; in assay [5], 0.247 µM; in assay [6], 0.416 µM. Also, the GI50 was 0.422 µM in [7], 0.607 µM in assay [8], 2.02 µM in assay [9] and 0.595 µM in assay [10]. Also, the TGI in [1] is greater than 100 µM; in assay [2], greater than 100 µM; in [3], greater than 26.8 µM; in assay [5] it was 0.752 µM; in [6], greater than 100 µM; in [7], greater than 100 µM. The TGI in [8] and in [9] was greater than 100 µM each time.
For the compound `Nc1c(S(=O)(=O)O)cc2c(c1Cl)C(=O)c1ccccc1C2=O`, the GI50 in assay [1], in [2], in assay [3], in assay [4], in [5] and in assay [6] was greater than 100 µM each time. Further, the GI50 in [7], in assay [8], in [9] and in assay [10] was greater than 100 µM in each case. The TGI in assay [1], in [2], in assay [3], in [4], in [5] and in [6] was greater than 100 µM in each case. Besides, the TGI in assay [7], in assay [8], in assay [9] and in assay [10] was greater than 100 µM throughout.
With `O=C(O)c1cccc(F)c1C(=O)c1ccc2ccccc2c1`, the TGI in [1], in assay [2], in [3], in assay [4], in assay [5] and in [6] was greater than 100 µM throughout. For the same compound, the TGI in assay [7], in [8], in [9] and in assay [10] was greater than 100 µM throughout.
`COc1cc(Nc2nccc(-c3cnn4ncccc34)n2)cc(OC)c1`: the GI50 in [1] was 0.0539 µM; in assay [2] it was 0.096 µM; in [3], 0.07 µM; in assay [4], 0.0703 µM; in assay [5], 0.0758 µM; in assay [6], 0.0532 µM. The GI50 in [7] was 0.119 µM; in assay [8], 0.0893 µM; in assay [9], 0.115 µM; in assay [10] it was 0.0668 µM. The TGI in assay [1] was 2.93 µM; in assay [2] it was greater than 5.62 µM; in [3], 0.859 µM; in assay [4], 4.02 µM; in [5] it was 4.78 µM; in assay [6], 0.223 µM. Further, the TGI is 5.67 µM in [7], 2.19 µM in assay [8] and greater than 25 µM in [9].
With `NC1=C(O)/C(=N/NS(=O)(=O)c2ccccc2)C(c2cccc(Cl)c2)O1` (configuration not stated), the TGI in assay [1] was greater than 100 µM; in assay [2], 95.1 µM; in assay [3], greater than 100 µM; in assay [4] it was greater than 58.4 µM; in [5] it was 35.8 µM; in assay [6], 66.7 µM. For the same compound, the TGI was greater than 100 µM in assay [7], greater than 100 µM in [8], 27.9 µM in assay [9] and 12 µM in assay [10].
With `CC/C(=C(/c1ccc(Cl)cc1)c1ccc(OCCCN(C)C)cc1)c1ccc(OC)cc1`, the GI50 in assay [1] was 1.1 µM; in assay [2], 7.08 µM; in assay [3], 3.28 µM; in assay [4] it was 5.55 µM; in assay [5] it was 1.16 µM; in assay [6], 1.14 µM. Besides, the GI50 is 3.88 µM in assay [7], 1.13 µM in assay [8], 1.06 µM in assay [9] and 1.79 µM in [10]. Moreover, the TGI amounted to 2.46 µM in assay [1]; 16.9 µM in assay [2]; 9.69 µM in assay [3]; 12.5 µM in assay [4]; 2.96 µM in assay [5]; 2.5 µM in assay [6]. Also, the TGI came out at 10.7 µM in assay [7], 2.89 µM in [8], 2.57 µM in assay [9] and 7.19 µM in assay [10].
Regarding `NC(CSC(c1ccccc1)(c1ccccc1)c1ccc(Br)cc1)C(=O)O` (configuration not stated), the GI50 in assay [1] was 0.175 µM; in assay [2] it was 0.0621 µM; in assay [3], 0.0402 µM; in [4], 0.499 µM; in assay [5] it was 0.1 µM; in [6], 0.17 µM. The GI50 in [7] is 0.375 µM; in [8] it was 0.971 µM; in assay [9], 0.311 µM; in assay [10] it was 0.0941 µM. In addition, the TGI was 18.1 µM in [1]; 0.219 µM in assay [2]; 0.199 µM in [3]; greater than 100 µM in assay [4]; 27.7 µM in assay [5]; 17.4 µM in [6]. Further, the figures for the TGI in assay [7], in [8] and in assay [9] were greater than 82.3 µM, greater than 57 µM and 20.6 µM, respectively.
For `COc1ccc2c(C(=O)NCCCCCC(=O)O)cc3cc4c(cc3c2c1)OCO4`, the GI50 in assay [1] is greater than 100 µM; in [2], greater than 100 µM; in assay [3] it was greater than 100 µM; in assay [4] it was greater than 100 µM; in assay [5], greater than 100 µM; in [6], 83 µM. Moreover, the GI50 in assay [7] is greater than 100 µM; in [8], 75.5 µM; in [9], greater than 100 µM; in assay [10] it was greater than 100 µM. Besides, the TGI in [1], in assay [2], in assay [3], in [4], in [5] and in assay [6] was greater than 100 µM each time. Also, the TGI in [7], in assay [8], in [9] and in assay [10] was greater than 100 µM each time.
With `COc1ccc(S(=O)(=O)Nc2c(/C=C\c3cc(OC)c(OC)c(OC)c3)ccc(OC)c2O)cc1OC`, the GI50 in [1] was 0.283 µM; in [2], 0.251 µM; in assay [3], 0.03 µM; in [4], 1.01 µM; in assay [5] it was 0.167 µM; in assay [6] it was 0.053 µM. Also, the GI50 is 0.403 µM in assay [7], 0.256 µM in assay [8], 0.0927 µM in [9] and 0.125 µM in assay [10]. The TGI is greater than 100 µM in [1]; greater than 100 µM in assay [2]; 0.302 µM in assay [3]; greater than 100 µM in [4]; greater than 100 µM in [5]; greater than 100 µM in [6]. Further, the TGI in assay [7], in [9] and in assay [10] was greater than 100 µM throughout.
Turning to `O=C(Nc1ccc(-n2cc(-c3ccncc3)c(-c3ccc(Cl)c(O)c3)n2)cc1)c1ccc(Cl)c(C(F)(F)F)c1`, the GI50 in assay [1] is 1.43 µM; in assay [2], 0.538 µM; in assay [3] it was 1.45 µM; in assay [4], 1.7 µM; in assay [5], 1.48 µM; in assay [6], 2.21 µM. Further, the GI50 in assay [7] is 5.41 µM; in assay [8], 1.12 µM; in [9], 0.404 µM; in assay [10], 1.18 µM. In addition, the TGI in assay [1] was 11.1 µM; in [3], 13.1 µM; in assay [4] it was 3.8 µM; in [5] it was 3.14 µM; in [6], 7.6 µM; in assay [7] it was greater than 31.4 µM. Further, the TGI in [8] is 12.6 µM; in assay [9], 4.09 µM; in assay [10], greater than 100 µM.
As for `CCOc1ccc(-n2cc(-c3ccc(N(C)C)cc3)[n+]3c2CCCCC3)cc1`, the GI50 was 0.349 µM in [1]; 3.33 µM in assay [2]; 0.217 µM in assay [3]; 10.4 µM in [4]; 2.21 µM in [5]; 0.199 µM in [6]. Besides, the GI50 in assay [7] was 1.88 µM; in assay [8], 0.406 µM; in [9], 0.128 µM; in [10], 1.08 µM. The TGI is greater than 38 µM in assay [1]; greater than 100 µM in [2]; 14.4 µM in [3]; greater than 100 µM in assay [4]; greater than 100 µM in [5]; 13.5 µM in [6]. Besides, the TGI in assay [7] is greater than 100 µM; in assay [8], 29.1 µM; in assay [9], greater than 100 µM; in assay [10], greater than 100 µM.
On to `COc1ccc(-n2cc(-c3ccc(F)cc3)[nH]c2=O)cc1OC`, for which the GI50 in [1] was greater than 100 µM; in [2], 98.9 µM; in [3] it was greater than 100 µM; in assay [4], greater than 100 µM; in assay [5], greater than 100 µM; in assay [6] it was greater than 100 µM. Moreover, the GI50 was greater than 100 µM in assay [7], greater than 100 µM in assay [8], 7.5 µM in assay [9] and 18.2 µM in assay [10]. Also, the TGI in assay [1], in assay [2], in [3], in assay [4], in assay [5] and in assay [6] was greater than 100 µM in each case. The TGI in [7] is greater than 100 µM; in assay [8] it was greater than 100 µM; in [9] it was greater than 100 µM; in assay [10] it was 34.3 µM.
As to `N[C@@H](Cc1ccc(N(CCCl)CCCl)cc1)C(=O)O`, the GI50 in assay [1] is 3.01 µM and 3.78 µM; in assay [3], 63.4 µM; in assay [4] it was 2.21 µM and 3.86 µM; in [5], 19.5 µM and 17.2 µM; in assay [6] it was 8.7 µM and 6.39 µM; in assay [7] it was 23.9 µM and 16.7 µM. Moreover, the GI50 in assay [8] was 27.8 µM; in assay [9] it was 37.8 µM; in assay [10], 2.47 µM and 1.96 µM. In addition, the TGI in [1] is > 100 µM and 29.2 µM and 103 µM; in assay [2], > 100 µM and 165 µM; in [3] it was > 100 µM and 105 µM; in assay [4], 8.9 µM and 25.4 µM and 67.6 µM; in [5], > 100 µM and 56.8 µM and 157 µM; in assay [6], > 100 µM and 22.2 µM and 46.2 µM. Moreover, the TGI in assay [7] is > 100 µM and > 90.2 µM and 186 µM; in assay [8], > 100 µM and 100 µM; in assay [9] it was 190 µM; in [10], 78.9 µM and > 96.4 µM and 66.8 µM.
